Measured values: patent publication US20060241172A1, “Benzodioxane and benzodioxolane derivatives and uses thereof” (Wyeth, priority 2005, published 2006)

Key:
[1] = target: T1, human 5-hydroxytryptamine-2C (h5-HT2C) receptor (Homo sapiens, UniProt P28335); assay: 5-HT2C binding: [125I]DOI displacement in membranes of transfected CHO cells; details: read-out: 5-HT2C Binding Ki avg
T1 construct: expressed in transfected cells; host or cells: CHO (Chinese Hamster Ovary) cells; membranes
T1 sequence (P28335 33-458): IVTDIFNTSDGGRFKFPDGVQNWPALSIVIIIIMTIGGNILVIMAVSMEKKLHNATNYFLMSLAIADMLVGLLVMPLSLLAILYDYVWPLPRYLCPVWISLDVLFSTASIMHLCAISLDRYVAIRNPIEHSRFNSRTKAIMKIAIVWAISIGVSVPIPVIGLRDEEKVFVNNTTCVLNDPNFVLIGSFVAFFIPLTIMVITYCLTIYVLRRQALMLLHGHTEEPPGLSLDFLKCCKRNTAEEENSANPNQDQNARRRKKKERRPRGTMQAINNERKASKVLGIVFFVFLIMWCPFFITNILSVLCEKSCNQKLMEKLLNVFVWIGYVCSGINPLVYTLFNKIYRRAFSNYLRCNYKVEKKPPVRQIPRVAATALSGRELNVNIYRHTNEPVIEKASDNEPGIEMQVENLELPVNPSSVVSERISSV

human 5-HT2C receptor = target: T2, human 5-HT2C receptor (Homo sapiens, UniProt P28335); assay: 5-HT2C receptor-stimulated calcium mobilization (FLIPR) in CHO cells; format: cell-based
T2 sequence (P28335 33-458): T1 sequence (P28335 33-458)

[2] = system: male C57BL/6J mice and lean Zucker rats; assay: Obesity Model A: acute food intake after overnight fast, oral dosing; format: in vivo
Description: To evaluate acute in vivo efficacy of various compounds, 7 weeks-old male C57BL/6J mice were obtained from The Jackson Laboratory (Bar Harbor, Me.) and 6 weeks-old lean Zucker rats were purchased from Charles River Laboratories (Wilmington, Mass.). Mice and rats were single housed in a temperature-controlled (25° C.) facility with a 12-h light/dark cycle. Animals were allowed normal chow diet (Rodent chow #5001, PharmaServ, Framingham, Mass.) and water ad libitum. After one week acclimation, animals were randomized to vehicle (saline) or treatment groups. Animals were fasted overnight (16 hrs) and orally dosed with vehicle or compounds. Thirty minutes after compound administration, animals were given a weighed amount of food, and food intake was recorded 30 minutes, 1 h, 2 h, 4 h, 7 h and 24 h after refeeding.

[3] = target: T3, human serotonin 5-HT2C receptor (Homo sapiens, UniProt P28335); assay: Saturation binding of [125I] DOI; details: saturation binding with increasing concentrations of [125I] DOI; read-out: dissociation constant, KD
T3 construct: expressed in transfected cells; host or cells: CHO (Chinese Hamster Ovary) cells; membranes
T3 sequence (P28335 33-458): T1 sequence (P28335 33-458)
Description: DOI. The reaction was initiated by the final addition of 100 μL of tissue suspension containing 50 μg of receptor protein. […] Test compounds were added in 20.0 μL. The mixture was incubated at room temperature for 60 min. The incubation was stopped by rapid filtration. The bound ligand-receptor complex was filtered off on a 96 well unifilter with a Packard® Filtermate 196 Harvester. The bound complex caught on the filter disk was dried in a vacuum oven heated to 60° C. and the radioactivity measured by liquid scintillation with 40 μL Microscint-20 scintillant in a Packard TopCount® equipped with six (6) photomultiplier detectors.

SMILES: NC[C@H]1COc2cccc(-c3c(Cl)cccc3Cl)c2O1 [Compound I-46, {[(2S)-8-(2,6-Dichlorophenyl)-2,3-dihydro-1,4-benzodioxin-2-yl]methyl}amine]
- Ki [1]: < 50 nM
- Emax (human 5-HT2C receptor; CHO, read-out: 5-HT2C Function EMax (%)): 50%
- EC50 (human 5-HT2C receptor; read-out: 5-HT2C Function EC50): < 100 nM
- % Reduction food intake (vs vehicle) ([2]; 1 mpk oral, 0.5 hour after refeeding): 0 ± 12%
- % Reduction food intake (vs vehicle) ([2]; 1 mpk oral, 2 hours after refeeding): 0 ± 6%
- % Reduction food intake (vs vehicle) ([2]; 1 mpk oral, 4 hours after refeeding): 1 ± 8%
- % Reduction food intake (vs vehicle) ([2]; 3 mpk oral, 0.5 hour after refeeding): 12 ± 8%
- % Reduction food intake (vs vehicle) ([2]; 3 mpk oral, 2 hours after refeeding): 11 ± 5%
- % Reduction food intake (vs vehicle) ([2]; 3 mpk oral, 4 hours after refeeding): 14 ± 7%
- % Reduction food intake (vs vehicle) ([2]; 10 mpk oral, 0.5 hour after refeeding): 74 ± 7%
- % Reduction food intake (vs vehicle) ([2]; 10 mpk oral, 2 hours after refeeding): 68 ± 5%
- % Reduction food intake (vs vehicle) ([2]; 10 mpk oral, 4 hours after refeeding): 51 ± 4%
- % Reduction food intake (vs vehicle) ([2]; 30 mpk oral, 0.5 hour after refeeding): 78 ± 14%
- % Reduction food intake (vs vehicle) ([2]; 30 mpk oral, 2 hours after refeeding): 88 ± 8%
- % Reduction food intake (vs vehicle) ([2]; 30 mpk oral, 4 hours after refeeding): 82 ± 7%
- % Reduction food intake (vs vehicle) ([2]; 50 mpk oral, 0.5 hour after refeeding): 100 ± 11%
- % Reduction food intake (vs vehicle) ([2]; 50 mpk oral, 2 hours after refeeding): 100 ± 5%
- % Reduction food intake (vs vehicle) ([2]; 50 mpk oral, 4 hours after refeeding): 98 ± 4%

SMILES: COc1cc(CC(C)N)c(OC)cc1I (stereo not shown) [[^125I] DOI]
- Kd [3]: 0.4 nM
